# Source: US12661335B2, “Halogenated xanthene-containing topical anti-gram-positive bacterial ophthalmic composition and method” (Provectus Pharmatech, Inc., priority 2021, dated 2026)
# Like-named read-outs stand apart in the source and are kept apart here.
# Tests used:
# [1] = system: Enterococcus faecium NR-32065 (a vancomycin- resistant strain); experiment: MIC, broth dilution method, dark condition; assay type: cell-based; conditions: Table 1 entry 20, 24 h
# [2] = system: Enterococcus faecium patient #3-1, NR-31912 (a vancomycin-resistant strain); experiment: MIC, broth dilution method, dark condition; assay type: cell-based; conditions: Table 1 entry 21, 24 h
# [3] = system: biofilms of drug-resistant S. aureus 71080 (VRS8); experiment: Biofilm eradication assay; assay type: cell-based, Staphylococcus aureus; conditions: fluorescent and dark conditions; concentration-dependent
# Description: Linezolid is not an effective drug in eradicating biofilms of Gram-positive bacteria, but has a beneficial effect in prevention of biofilm formations [Reiter et al., J. Med. Microbiol. 62:394-399 (2013)], and was used as a control.
# We confirm that RB is an excellent agent to eradicate biofilms of Gram-positive bacteria, including drug-resistant strains. […] These studies indicate that RB has the potential antibacterial agent to kill drug-resistant bacteria in any growth phases.
# [4] = system: Staphylococcus aureus USA100 strains 71080 (VRS8, a vancomycin-resistant strain); experiment: MIC, broth dilution method, dark condition; assay type: cell-based; conditions: Table 1 entry 15, 24 h
# C. albicans = conditions: three days of incubation, cited from earlier work
# [5] = system: Staphylococcus aureus strain AIS 1000505 (VRS10, a vancomycin-resistant strain); experiment: MIC, broth dilution method, dark condition; assay type: cell-based; conditions: Table 1 entry 14, 24 h
# Gram-positive bacteria = experiment: MIC summary for Gram-positive bacteria, broth dilution; assay type: cell-based
# Description: (§1) Under the dark condition RB is known to display antibacterial activity at high concentrations.
# Provectus has established a manufacturing and purification process for pharmaceutical-grade RB that fulfills both cGMP and ICH requirements. We have evaluated the antibacterial activity and cytotoxicity of a pharmaceutical-grade RB formulated product (PV-10®) as an exemplary RB compound in illuminating and dark conditions.
# [6] = system: 7 methicillin-resistant S. aureus (MRSA) with different SCCmec types; experiment: Bactericidal activity under fluorescent or LED light, MRSA panel; assay type: cell-based, Staphylococcus aureus; conditions: under the fluorescent or LED light; Table 1 entries 5-11
# Description: Minimum inhibitory concentrations (MICs) were determined by broth dilution microplate alamar blue assay or by OD measurement. All compounds were stored in DMSO or saline (1 mg/100 μL concentration). This concentration was used as the stock solution for all MIC studies. Each compound from stock solution was placed in the first well of a sterile 96 well plate and a serial dilution was conducted with the culturing broth (total volume of 10 μL). The bacterial suspension at log phase (190 μL) was added to each well (total volume of 200 μL), and was incubated for 24 h at 37° C. 20 μL of resazurin (0.02%) was added to each well and incubated for 4 h, (National Committee for Clinical Laboratory Standards (NCCLS) method (pink=growth, blue=no visible growth)). The OD measurements were performed for all experiments prior to performing colorimetric assays. The absorbance of each well was also measured at 570 and 600 nm via UV-Vis.
# [7] = system: Staphylococcus aureus BAA-2313 ™ (a MRSA strain); experiment: MIC, broth dilution method, dark condition; assay type: cell-based; conditions: Table 1 entry 10, 24 h
# Gram-negative bacteria = experiment: Susceptibility of Gram-negative bacteria, dark condition; assay type: cell-based
# Description: as §1
# [8] = system: multidrug-resistant Fusarium keratoplasticum; conditions: RB about 0.1%, photoactivated by 15 minutes irradiation at 375 nm or 518 nm; cited from earlier work
# [9] = system: Enterococcus faecium 349 ™; experiment: MIC, broth dilution method, dark condition; assay type: cell-based; conditions: Table 1 entry 18, 24 h
# [10] = system: Fusarium keratoplasticum-infected cornea; conditions: one patient, cited from earlier work
# Bacillus cereus 13061 ™ [11] = experiment: MIC, broth dilution method, dark condition; assay type: cell-based; conditions: Table 1 entry 3, 24 h
# [12] = system: Staphylococcus aureus 6538 ™; experiment: MIC, agar dilution method; assay type: cell-based; conditions: Table 2 entry 3, dark
# Description: (§2) The MIC values of RB determined by the agar dilution method differed from those determined by the broth dilution method (Table 1). Selected examples of the MIC values determined by the agar dilution method are summarized in Table 2 shown by renumbering the assayed microbes.
# [13] = system: Mycobacterium smegmatis 607 ™; experiment: MIC, agar dilution method; assay type: cell-based; conditions: Mycolicibacterium smegmatis, Table 2 entry 5, dark
# Description: as §2
# Bacillus cereus 13061 ™ [14] = experiment: MIC, agar dilution method; assay type: cell-based; conditions: Table 2 entry 2, dark
# Description: as §2
# [15] = system: Bacillus subtilis ATCC6051; experiment: MIC, agar dilution method; assay type: cell-based; conditions: Table 2 entry 1, dark
# Description: as §2
# [16] = system: Staphylococcus aureus subsp. Aureus BAA-44 ™ (a MRSA strain); experiment: MIC, agar dilution method; assay type: cell-based; conditions: Table 2 fourth entry (printed 1), dark
# Description: as §2
# [17] = system: Mycobacterium avium subsp. Avium 2285; experiment: MIC, broth dilution method, dark condition; assay type: cell-based; conditions: Table 1 entry 26, 24 h
# [18] = system: Mycobacterium kansasii 824 ™; experiment: MIC, broth dilution method, dark condition; assay type: cell-based; conditions: Table 1 entry 27, 24 h
# [19] = system: patient-isolated methicillin-resistant Staphylococcus aureus (MRSA); conditions: cited from earlier work
smiles,measurement,setting,value
"O=C(O)c1c(Cl)c(Cl)c(Cl)c(Cl)c1-c1c2cc(I)c(=O)c(I)c-2oc2c(I)c(O)c(I)cc12 [RB, 4,5,6,7-tetrachloro-2′,4′,5′,7′-tetraiodofluorescein]",MIC,[1],50 µg/mL
same,MIC,[2],50 µg/mL
same,viable cells in biofilm,[3],significantly reduced
same,MIC,[4],25 µg/mL
same,"Day 3 Growth Inhibition Percentage, RB + 518 nm Irradiation","C. albicans; 518 nm, 5.4 J/cm^2",95.6 ± 3 Percentage
same,"Day 3 Growth Inhibition Percentage, RB Only","C. albicans; dark, no irradiation",42.2 ± 3.7 Percentage
same,MIC,[5],25 µg/mL
same,concentration showing antibacterial activity against all Gram-positive bacteria of entries 1-23,"Gram-positive bacteria; dark condition, Table 1",25.0 to 100 µg/mL
same,MIC,"Gram-positive bacteria; saline-diluted PV-10, except Streptococcus pneumoniae sp., lighting not given, read-out: MIC against most Gram-positive bacteria",0.39 to 3.1 µg/mL
same,concentration at which all MRSA strains were killed,[6],0.78 to 3.1 µg/mL
same,MIC,[7],25 µg/mL
same,susceptibility of Gram-negative bacteria to RB,Gram-negative bacteria,not susceptible
same,fungal growth inhibition in vitro,[8],could inhibit the fungal growth
same,MIC,[9],50 µg/mL
same,time to resolution of pain post irradiation,"[10]; RB dripped on debrided cornea 30 minutes, 518 nm light 0.9 J/cm^2",36 h
same,decrease of infiltrate size in all directions,[10]; four days after treatment,approximately 1 mm
same,MIC,Bacillus cereus 13061 ™ [11],50 µg/mL
same,MIC,[12],25 µg/mL
same,MIC,[13],50 µg/mL
same,MIC,Bacillus cereus 13061 ™ [14],125 µg/mL
same,MIC,[15],125 µg/mL
same,MIC,[16],50 µg/mL
same,MIC,[17],50 µg/mL
same,MIC,[18],50 µg/mL
same,growth inhibition of MRSA strain 1,[19]; RB 0.03% in dark conditions,incomplete inhibition
same,growth inhibition of MRSA strain 2,[19]; RB 0.03% in dark conditions,complete inhibition
same,growth inhibition of both MRSA strains,[19]; RB 0.1% in the dark,Complete growth inhibition
same,growth inhibition of both MRSA strains,"[19]; RB 0.1 and 0.03%, ambient room light or green LED irradiation (5.4 J/cm^2)",Complete growth inhibition
